These results are taken from US20250195513A1, “DEGRADATION OF IRAK4 BY CONJUGATION OF IRAK4 INHIBITORS WITH E3 LIGASE LIGAND AND METHODS OF USE” (BeiGene, Ltd., priority 2022, published 2025).

Test [1] has as its target T1, IRAK4 (Homo sapiens, UniProt Q9NWZ3).
T1 construct: endogenous in cells; host or cells: Karpas299
T1 sequence (Q9NWZ3 1-460): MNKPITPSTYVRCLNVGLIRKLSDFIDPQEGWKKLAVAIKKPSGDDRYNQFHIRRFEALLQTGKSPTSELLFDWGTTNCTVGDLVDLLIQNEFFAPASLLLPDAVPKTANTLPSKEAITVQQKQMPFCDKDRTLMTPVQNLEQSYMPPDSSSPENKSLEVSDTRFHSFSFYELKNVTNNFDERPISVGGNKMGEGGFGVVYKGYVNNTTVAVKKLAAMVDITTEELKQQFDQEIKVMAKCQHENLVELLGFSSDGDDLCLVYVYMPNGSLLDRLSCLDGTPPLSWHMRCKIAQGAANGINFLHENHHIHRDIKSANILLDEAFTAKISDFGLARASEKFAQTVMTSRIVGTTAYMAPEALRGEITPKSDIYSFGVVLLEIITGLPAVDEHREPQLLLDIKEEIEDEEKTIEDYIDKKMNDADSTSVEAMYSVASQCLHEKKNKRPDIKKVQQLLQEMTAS
Description: IRAK4 Degradation Assay with Human Serum (Karpas299, HTRF/TR-FRET). The following applies: Karpas-299 in human serum, 24 hrs treatment; for DC50: read-out: IRAK4 degradtion with human serum assay DC50; for Dmax: read-out: IRAK4 degradtion with human serum assay Dmax (%). Type of test: cell-based. In outline:
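Karpas299 cells in human AB serum (0.2 million/well) treated with serial compound dilutions for 24 h. After lysis, IRAK4 quantified by HTRF (overnight antibody incubation at room temperature, 665/620 nm read). Degradation percentage fitted to four-parameter curve to give DC50.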

The target of test [2] is T1, IRAK4. Briefly: IRAK4 Degradation Assay (Karpas299, HTRF/TR-FRET). In kind it is cell-based. The settings on record: Karpas-299 cells; for Dmax: maximum percentage of degradation. In outline:
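Karpas299 cells at 0.2 million per well were exposed to serially diluted compounds for 24 h or 5 h, then lysed. IRAK4 remaining in lysates was quantified by HTRF (665/620 nm) after overnight antibody incubation at room temperature. Percent degradation was fitted to a four-parameter curve to give IC50 (DC50).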
Background: In TR-FRET formats the signal depends on donor and acceptor labels being close together.

The mark [3] stands for this setting: 24 h treatment, read-out: IRAK4 in Karpas-299 (24 h) Dmax (%).
The mark [4] stands for this setting: 24 h treatment, read-out: IRAK4 in Karpas-299 (24 h) DC50.

As usually defined, the DC50 is the concentration at which degradation of the target reaches its halfway point. What is called Dmax is the largest share of the target that was removed. On to `CC(C)(O)c1cc2nn([C@H]3CC[C@H](N4CCN(CCNc5cc(F)c(C6CCC(=O)NC6=O)c(F)c5)CC4)CC3)cc2cc1NC(=O)c1ccc2cc(C#N)cnn12` (stereo partly drawn) [Example 135, 3-cyano-N-(2-((1r,4r)-4-(4-(2-((4-(2,6-dioxopiperidin-3-yl)-3,5-difluorophenyl)amino)ethyl)piperazin-1-yl)cyclohexyl)-6-(2-hydroxypropan-2-yl)-2H-indazol-5-yl)pyrrolo[1,2-b]pyridazine-7-carboxamide], for which the DC50 was found to be 7.1 nM in test [1]; 1.6 nM in test [2] (5 h treatment, read-out: IRAK4 in Karpas-299 (5 h) DC50); 1.1 nM in test [2] (setting [4]). For the same molecule, the greatest degradation seen (Dmax) was 100% in test [1]; 93% in test [2] (5 h treatment, read-out: IRAK4 in Karpas-299 (5 h) Dmax (%)); 98% in test [2] (setting [3]).

On to `Cc1nc(C2CCC(=O)NC2=O)ccc1N1CCC(N2CCN(C34CCC(n5cc6cc(NC(=O)c7ccc8cc(C#N)cnn78)c(C(C)(C)O)cc6n5)(CC3)CC4)CC2)CC1` (stereo not drawn) [Example 416, 3-cyano-N-(2-(4-(4-(1-(6-(2,6-dioxopiperidin-3-yl)-2-methylpyridin-3-yl)piperidin-4-yl)piperazin-1-yl)bicyclo[2.2.2]octan-1-yl)-6-(2-hydroxypropan-2-yl)-2H-indazol-5-yl)pyrrolo[1,2-b]pyridazine-7-carboxamide], for which the DC50 in test [1] stood at 9.2 nM; in test [2] (setting [4]) it was 1.9 nM. For the same molecule, the Dmax in test [1] is 99%; in test [2] (setting [3]) it was 98%.

Consider `COC[C@H]1CN([C@H]2CC[C@H](n3cc4cc(NC(=O)c5ccc6cc(C#N)cnn56)c(C(C)(C)O)cc4n3)CC2)CCN1C(=O)[C@@H]1CCN(c2cc(F)c([C@H]3CCC(=O)NC3=O)c(F)c2)C1` [Example 313, 3-cyano-N-(2-((1R,4r)-4-((R)-4-((R)-1-(4-((R)-2,6-dioxopiperidin-3-yl)-3,5-difluorophenyl)pyrrolidine-3-carbonyl)-3-(methoxymethyl)piperazin-1-yl)cyclohexyl)-6-(2-hydroxypropan-2-yl)-2H-indazol-5-yl)pyrrolo[1,2-b]pyridazine-7-carboxamide], for which the results for the DC50 in test [1] and in test [2] (setting [4]) were 24 nM and 0.3 nM, respectively. For the same molecule, the greatest degradation seen (Dmax) in test [1] turned out to be 96%; in test [2] (setting [3]), 98%.

With `CC(C)(O)c1cc2nn([C@H]3CC[C@H](CN4CCN(C5CCN(c6ccc7c(c6)C(=O)N(C6CCC(=O)NC6=O)C7=O)CC5)CC4)CC3)cc2cc1NC(=O)c1ccc2cc(C#N)cnn12` (stereo partly drawn) [Example 436, 3-cyano-N-(2-((1r,4r)-4-((4-(1-(2-(2,6-dioxopiperidin-3-yl)-1,3-dioxoisoindolin-5-yl)piperidin-4-yl)piperazin-1-yl)methyl)cyclohexyl)-6-(2-hydroxypropan-2-yl)-2H-indazol-5-yl)pyrrolo[1,2-b]pyridazine-7-carboxamide], the DC50 in test [1] was 14 nM; in test [2] (setting [4]), 10.8 nM. The Dmax came to 85% in test [1] and 96% in test [2] (setting [3]).

With `CC(C)(O)c1cc2nn([C@H]3CC[C@H](N4CCN(C(=O)C5CN(c6cc(F)c([C@H]7CCC(=O)NC7=O)c(F)c6)C5)CC4=O)CC3)cc2cc1NC(=O)c1ccc2cc(C#N)cnn12` [Example 199, 3-cyano-N-(2-((1r,4r)-4-(4-(1-(4-((R)-2,6-dioxopiperidin-3-yl)-3,5-difluorophenyl)azetidine-3-carbonyl)-2-oxopiperazin-1-yl)cyclohexyl)-6-(2-hydroxypropan-2-yl)-2H-indazol-5-yl)pyrrolo[1,2-b]pyridazine-7-carboxamide], the DC50 in test [1] came to 22 nM; in test [2] (setting [4]), 0.4 nM. Besides, the Dmax in test [1] turned out to be 95%; in test [2] (setting [3]), 99%.

`CC(C)(O)c1cc2nn([C@H]3CC[C@H](N4CCN(CC5CN(c6cc(F)c(N7CCC(=O)NC7=O)c(F)c6)C5)CC4)CC3)cc2cc1NC(=O)c1ccc2cc(C#N)cnn12` [Example 108, 3-cyano-N-(2-((1r,4r)-4-(4-((1-(4-(2,4-dioxotetrahydropyrimidin-1(2H)-yl)-3,5-difluorophenyl)azetidin-3-yl)methyl)piperazin-1-yl)cyclohexyl)-6-(2-hydroxypropan-2-yl)-2H-indazol-5-yl)pyrrolo[1,2-b]pyridazine-7-carboxamide]: the results for the DC50 in test [1] and in test [2] (setting [4]) were 28 nM and 3.9 nM, respectively. The figures for the Dmax in test [1] and in test [2] (setting [3]) were 94% and 97%, respectively.

Take `COC[C@H]1CN(C(=O)C2CN(c3cc(F)c([C@H]4CCC(=O)NC4=O)c(F)c3)C2)CCN1[C@H]1CC[C@H](n2cc3cc(NC(=O)c4ccc5cc(C#N)cnn45)c(C(C)(C)O)cc3n2)CC1` [Example 184, 3-cyano-N-(2-((1R,4r)-4-((R)-4-(1-(4-((R)-2,6-dioxopiperidin-3-yl)-3,5-difluorophenyl)azetidine-3-carbonyl)-2-(methoxymethyl)piperazin-1-yl)cyclohexyl)-6-(2-hydroxypropan-2-yl)-2H-indazol-5-yl)pyrrolo[1,2-b]pyridazine-7-carboxamide]: the DC50 in test [1] was 126 nM; in test [2] (setting [4]), 0.7 nM. Also, the figures for the Dmax in test [1] and in test [2] (setting [3]) were 97% and 96%, respectively.

Turning to `COC[C@H]1CN([C@H]2CC[C@H](n3cc4cc(NC(=O)c5ccc6cc(C#N)cnn56)c(C(C)(C)O)cc4n3)CC2)CCN1C1CN(c2cc(F)c([C@H]3CCC(=O)NC3=O)c(F)c2)C1` [Example 318, 3-cyano-N-(2-((1R,4r)-4-((R)-4-(1-(4-((R)-2,6-dioxopiperidin-3-yl)-3,5-difluorophenyl)azetidin-3-yl)-3-(methoxymethyl)piperazin-1-yl)cyclohexyl)-6-(2-hydroxypropan-2-yl)-2H-indazol-5-yl)pyrrolo[1,2-b]pyridazine-7-carboxamide], the DC50 in test [1] was 39 nM; in test [2] (setting [4]) it was 1.1 nM. The greatest degradation seen (Dmax) in test [1] was 95%; in test [2] (setting [3]), 91%.

Regarding `CC(C)(O)c1cc2nn([C@H]3CC[C@H](CN4CCN(CCNc5cccc6c5C(=O)N(C5CCC(=O)NC5=O)C6=O)CC4)CC3)cc2cc1NC(=O)c1ccc2cc(C#N)cnn12` (stereo partly drawn) [Example 438, 3-cyano-N-(2-((1r,4r)-4-((4-(2-((2-(2,6-dioxopiperidin-3-yl)-1,3-dioxoisoindolin-4-yl)amino)ethyl)piperazin-1-yl)methyl)cyclohexyl)-6-(2-hydroxypropan-2-yl)-2H-indazol-5-yl)pyrrolo[1,2-b]pyridazine-7-carboxamide], the DC50 in test [1] came out at 17 nM; in test [2] (setting [4]), 2.5 nM. For the same molecule, the Dmax in test [1] and in test [2] (setting [3]) was 96% each time.

`C[C@H]1CN(C2CN(c3cc(F)c([C@H]4CCC(=O)NC4=O)c(F)c3)C2)CCN1[C@H]1CC[C@H](n2cc3cc(NC(=O)c4ccc5cc(C#N)cnn45)c(C(C)(C)O)cc3n2)CC1` [Example 308, 3-cyano-N-(2-((1S,4r)-4-((S)-4-(1-(4-((R)-2,6-dioxopiperidin-3-yl)-3,5-difluorophenyl)azetidin-3-yl)-2-methylpiperazin-1-yl)cyclohexyl)-6-(2-hydroxypropan-2-yl)-2H-indazol-5-yl)pyrrolo[1,2-b]pyridazine-7-carboxamide]: the DC50 is 8.9 nM in test [1] and 1.5 nM in test [2] (setting [4]). The Dmax in test [1] turned out to be 99%; in test [2] (setting [3]), 97%.
